Experimental data taken from PubChem BioAssay AID330 (DTP/NCI, 2004).
Several values for one entry are separate records, joined by “and”; a condition that tells them apart may be missing. Equal entries are not always repeated. Toxic doses and inconclusive results are not listed.

System: P388 leukemia ip, CD2F1 mice, survival T/C
Assay: NCI In Vivo Anticancer Drug Screen. Data for tumor model P388 Leukemia (intraperitoneal) in CD2F1 (CDF1) mice
Conditions: endpoint: median survival time, higher = longer survival
Method in brief: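 Mice carrying the transplanted tumor received test compound or vehicle. Survival was recorded in each group, and the value is the treated-group measurement divided by that of the vehicle-treated control group.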

[1] = dose: 6.25 mg/kg/injection, schedule: Q01DX009 (ip), vehicle: distilled water + Tween-80
[2] = dose: 12.5 mg/kg/injection, schedule: Q01DX009 (ip), vehicle: distilled water + Tween-80
[3] = dose: 50.0 mg/kg/injection, schedule: Q01DX009 (ip), vehicle: distilled water + Tween-80
[4] = dose: 100.0 mg/kg/injection, schedule: Q01DX009 (ip), vehicle: distilled water + Tween-80
[5] = dose: 200.0 mg/kg/injection, schedule: Q01DX009 (ip), vehicle: distilled water + Tween-80
[6] = dose: 50.0 mg/kg/injection, schedule: Q01DX009 (ip), vehicle: Klucel (hydroxypropylcellulose) (HPC)
[7] = dose: 100.0 mg/kg/injection, schedule: Q01DX009 (ip), vehicle: Klucel (hydroxypropylcellulose) (HPC)
[8] = dose: 200.0 mg/kg/injection, schedule: Q01DX009 (ip), vehicle: Klucel (hydroxypropylcellulose) (HPC)
[9] = dose: 50.0 mg/kg/injection, schedule: Q01DX005 (ip), vehicle: saline with Tween-80
[10] = dose: 100.0 mg/kg/injection, schedule: Q01DX005 (ip), vehicle: saline with Tween-80
[11] = dose: 200.0 mg/kg/injection, schedule: Q01DX005 (ip), vehicle: saline with Tween-80
[12] = dose: 60.0 mg/kg/injection, schedule: Q01DX005 (ip), vehicle: Klucel (hydroxypropylcellulose) (HPC)
[13] = dose: 60.0 mg/kg/injection, schedule: Q01DX005 (ip), vehicle: saline with Tween-80
[14] = dose: 120.0 mg/kg/injection, schedule: Q01DX005 (ip), vehicle: saline with Tween-80
[15] = dose: 240.0 mg/kg/injection, schedule: Q01DX005 (ip), vehicle: saline with Tween-80

## [NH-]CC(=O)O.[NH-]CC(=O)O.[Pt+2]
dose: 3.13 mg/kg/injection, schedule: Q01DX009 (ip), vehicle: water
  T/C: 97 % of control
[1]
  T/C: 119 % of control
dose: 6.25 mg/kg/injection, schedule: Q01DX009 (ip), vehicle: water
  T/C: 90 % of control and 112 % of control
[2]
  T/C: 111 % of control
dose: 12.5 mg/kg/injection, schedule: Q01DX009 (ip), vehicle: water
  T/C: 106 % of control and 110 % of control
dose: 25.0 mg/kg/injection, schedule: Q01DX009 (ip), vehicle: water
  T/C: 100 % of control and 112 % of control
[3]
  T/C: 119 % of control
dose: 50.0 mg/kg/injection, schedule: Q01DX009 (ip), vehicle: water
  T/C: 97 % of control
[4]
  T/C: 115 % of control
dose: 100.0 mg/kg/injection, schedule: Q01DX009 (ip), vehicle: water
  T/C: 97 % of control
[5]
  T/C: 98 % of control

## C=C1C(=O)OC2/C=C(\C)CC(OC(C)=O)/C=C(/CO)CC(OC(=O)/C(C)=C/C)C12 (centres undefined)
dose: 3.75 mg/kg/injection, schedule: Q01DX009 (ip), vehicle: saline + alcohol
  T/C: 90 % of control
dose: 7.5 mg/kg/injection, schedule: Q01DX009 (ip), vehicle: saline + alcohol
  T/C: 98 % of control
dose: 15.0 mg/kg/injection, schedule: Q01DX009 (ip), vehicle: saline + alcohol
  T/C: 93 % of control
dose: 30.0 mg/kg/injection, schedule: Q01DX009 (ip), vehicle: saline + alcohol
  T/C: 86 % of control

## CCn1c(Cl)c(/C=N/Nc2ccccc2[N+](=O)[O-])c2cc(/C=N/Nc3ccccc3[N+](=O)[O-])ccc21
dose: 100.0 mg/kg/injection, schedule: Q01DX001 (ip), vehicle: Klucel (hydroxypropylcellulose) (HPC)
  T/C: 87 % of control
dose: 200.0 mg/kg/injection, schedule: Q01DX001 (ip), vehicle: Klucel (hydroxypropylcellulose) (HPC)
  T/C: 93 % of control
dose: 400.0 mg/kg/injection, schedule: Q01DX001 (ip), vehicle: Klucel (hydroxypropylcellulose) (HPC)
  T/C: 91 % of control

## C=CCOc1cccc(OCC=C)c1C
dose: 100.0 mg/kg/injection, schedule: Q04DX003 (ip), vehicle: saline with Tween-80
  T/C: 113 % of control
dose: 200.0 mg/kg/injection, schedule: Q04DX003 (ip), vehicle: saline with Tween-80
  T/C: 100 % of control
dose: 400.0 mg/kg/injection, schedule: Q04DX003 (ip), vehicle: saline with Tween-80
  T/C: 104 % of control

## C=C1C(=O)C23OC2C1CCC(=O)C1(C)CC[C@H](OC(C)=O)C(C)(C)[C@H]1CC3O (some centres undefined)
dose: 5.0 mg/kg/injection, schedule: Q01DX005 (ip), vehicle: Klucel (hydroxypropylcellulose) (HPC)
  T/C: 104 % of control
dose: 10.0 mg/kg/injection, schedule: Q01DX005 (ip), vehicle: Klucel (hydroxypropylcellulose) (HPC)
  T/C: 109 % of control
dose: 20.0 mg/kg/injection, schedule: Q01DX005 (ip), vehicle: Klucel (hydroxypropylcellulose) (HPC)
  T/C: 111 % of control
dose: 40.0 mg/kg/injection, schedule: Q01DX005 (ip), vehicle: Klucel (hydroxypropylcellulose) (HPC)
  T/C: 110 % of control and 114 % of control

## CC12CC3(C)CC(C)(C1)CC(C(Cl)C(=O)NC1CCCCC1)(C2)C3 (centres undefined)
[6]
  T/C: 110 % of control
[7]
  T/C: 107 % of control
[8]
  T/C: 97 % of control

## CCOC(=O)C1C(=O)CN(C(=O)OC)C1C(=O)OCC (centres undefined)
[9]
  T/C: 99 % of control
[10]
  T/C: 95 % of control
[11]
  T/C: 95 % of control

## Cc1cc(NCCCCCCNc2cc(C)nc3cc(N(C)C)ccc23)c2ccc(N(C)C)cc2n1
dose: 1.56 mg/kg/injection, schedule: Q01DX009 (ip), vehicle: distilled water + Tween-80 + alcohol
  T/C: 110 % of control
dose: 6.25 mg/kg/injection, schedule: Q01DX009 (ip), vehicle: distilled water + Tween-80 + alcohol
  T/C: 151 % of control
dose: 12.5 mg/kg/injection, schedule: Q01DX009 (ip), vehicle: distilled water + Tween-80 + alcohol
  T/C: 154 % of control and 158 % of control
dose: 25.0 mg/kg/injection, schedule: Q01DX009 (ip), vehicle: distilled water + Tween-80 + alcohol
  T/C: 178 % of control and 181 % of control

## CN(/N=C/c1ccccc1)C(N)=Nc1ccccc1
[9]
  T/C: 119 % of control
[10]
  T/C: 107 % of control
[11]
  T/C: 104 % of control

## CC(=O)n1c(Cl)c(/C=N/NS(=O)(=O)c2ccc(C)cc2)c2ccccc21
dose: 25.0 mg/kg/injection, schedule: Q01DX001 (ip), vehicle: saline with Tween-80
  T/C: 100 % of control
dose: 50.0 mg/kg/injection, schedule: Q01DX001 (ip), vehicle: saline with Tween-80
  T/C: 86 % of control and 88 % of control
dose: 100.0 mg/kg/injection, schedule: Q01DX001 (ip), vehicle: saline with Tween-80
  T/C: 91 % of control

## C=C1C(=O)[C@]23C[C@H]1CC[C@H]2[C@@]12CO[C@@H](O)[C@@H]1C(C)(C)[C@@H](O)C[C@@H]2OC3=O
dose: 3.8 mg/kg/injection, schedule: Q01DX008 (ip), vehicle: saline with Tween-80
  T/C: 100 % of control
dose: 7.5 mg/kg/injection, schedule: Q01DX008 (ip), vehicle: saline with Tween-80
  T/C: 102 % of control
dose: 7.5 mg/kg/injection, schedule: Q01DX009 (ip), vehicle: saline with Tween-80
  T/C: 113 % of control
dose: 15.0 mg/kg/injection, schedule: Q01DX008 (ip), vehicle: saline with Tween-80
  T/C: 94 % of control
dose: 15.0 mg/kg/injection, schedule: Q01DX009 (ip), vehicle: saline with Tween-80
  T/C: 123 % of control
dose: 30.0 mg/kg/injection, schedule: Q01DX008 (ip), vehicle: saline with Tween-80
  T/C: 102 % of control
dose: 30.0 mg/kg/injection, schedule: Q01DX009 (ip), vehicle: saline with Tween-80
  T/C: 117 % of control
dose: 60.0 mg/kg/injection, schedule: Q01DX009 (ip), vehicle: saline with Tween-80
  T/C: 113 % of control

## CC/C(=C(\c1ccccc1)c1ccc(OCCNC)cc1)c1ccccc1
dose: 15.0 mg/kg/injection, schedule: Q01DX005 (ip), vehicle: Klucel (hydroxypropylcellulose) (HPC)
  T/C: 98 % of control
dose: 30.0 mg/kg/injection, schedule: Q01DX005 (ip), vehicle: Klucel (hydroxypropylcellulose) (HPC)
  T/C: 88 % of control
[12]
  T/C: 92 % of control

## O=C1C(=C2C=CN(CCN3CCCCC3)C=C2)C(=O)c2ccccc21
[6]
  T/C: 100 % of control
[7]
  T/C: 100 % of control
[8]
  T/C: 87 % of control

## CCN(CC)C(C)CN1c2ccccc2Sc2ccccc21 (centres undefined)
dose: 50.0 mg/kg/injection, schedule: Q01DX005 (ip), vehicle: saline
  T/C: 100 % of control
dose: 100.0 mg/kg/injection, schedule: Q01DX005 (ip), vehicle: saline
  T/C: 99 % of control
dose: 200.0 mg/kg/injection, schedule: Q01DX005 (ip), vehicle: saline
  T/C: 100 % of control

## CCOc1cccs1
[13]
  T/C: 102 % of control
[14]
  T/C: 100 % of control

## CC(C)C(NC(=O)CCl)C(=O)O (centres undefined)
[7]
  T/C: 98 % of control
[8]
  T/C: 109 % of control

## Cc1c(NC(=O)CCl)c(=O)oc2c(C)c3occc(=O)c3cc12
dose: 30.0 mg/kg/injection, schedule: Q01DX005 (ip), vehicle: saline with Tween-80
  T/C: 100 % of control
[13]
  T/C: 89 % of control and 97 % of control
[14]
  T/C: 90 % of control
[15]
  T/C: 99 % of control

## COc1ccc(C2OC3=Nc4ccccc4NC3C2=O)cc1OC (centres undefined)
[12]
  T/C: 107 % of control
dose: 120.0 mg/kg/injection, schedule: Q01DX005 (ip), vehicle: Klucel (hydroxypropylcellulose) (HPC)
  T/C: 105 % of control
dose: 240.0 mg/kg/injection, schedule: Q01DX005 (ip), vehicle: Klucel (hydroxypropylcellulose) (HPC)
  T/C: 100 % of control

## C=C(c1ccccc1)C1(O)CCCCC1N(C)C (centres undefined)
dose: 25.0 mg/kg/injection, schedule: Q04DX002 (ip), vehicle: saline with Tween-80
  T/C: 102 % of control
dose: 50.0 mg/kg/injection, schedule: Q04DX002 (ip), vehicle: saline with Tween-80
  T/C: 100 % of control
dose: 100.0 mg/kg/injection, schedule: Q04DX002 (ip), vehicle: saline with Tween-80
  T/C: 94 % of control

## CNC(=O)OCC[N+](C)(C)C
dose: 3.12 mg/kg/injection, schedule: Q01DX009 (ip), vehicle: saline
  T/C: 101 % of control
dose: 6.25 mg/kg/injection, schedule: Q01DX009 (ip), vehicle: saline
  T/C: 101 % of control

## CCOc1cc2cc(CCO)c(C)cc2cn1
[1]
  T/C: 110 % of control
[2]
  T/C: 108 % of control
dose: 25.0 mg/kg/injection, schedule: Q01DX009 (ip), vehicle: distilled water + Tween-80
  T/C: 94 % of control
[3]
  T/C: 94 % of control
[4]
  T/C: 100 % of control and 90 % of control
[5]
  T/C: 95 % of control
dose: 400.0 mg/kg/injection, schedule: Q01DX009 (ip), vehicle: distilled water + Tween-80
  T/C: 104 % of control

## CN(CCOC(N)=O)CCOC(N)=O
[13]
  T/C: 92 % of control
[14]
  T/C: 97 % of control
[15]
  T/C: 95 % of control
